Literature values in patent US7968511B2, “Combination therapy with glatiramer acetate and mitoxantrone for the treatment of multiple sclerosis” (Teva Pharmaceutical Industries, Ltd., priority 2003, dated 2011).

Tested on: multiple sclerosis (MS)
Conditions: daily subcutaneous injections, 20 mg/injection

L-glutamic acid polymer with L-alanine, L-lysine and L-tyrosine, acetate (salt) [glatiramer acetate]
reduce: appearance of "black holes" | appearance of new lesions by magnetic resonance imaging (MRI) | progression of disability | relapse rates
